Test results taken from patent publication US20170008888A1 (KYORIN PHARMACEUTICAL CO., LTD., priority 2014, published 2017).
Where two headings read alike, the source gives them in different places.

How the values were obtained:
[1] = test system: primary human corneal epithelial cells; test: Cytokine response in primary human corneal epithelial cells stimulated with IFNγ, IL-1β or IL-17A; assay type: cell-based; conditions: Corneal epithelial cell, 24 h, 5 μM compound
Protocol: Primary corneal epithelial cells were obtained from Life Technologies (Carlsbad, Calif.) and maintained in Keratinocyte-SFM media supplemented with EGF and bovine pituitary extract (Life Technologies). Cells were seeded at 1e5 cells/ml and incubated at 37° C. in a humidified atmosphere at 5% CO2 overnight to adhere. Cells were supplement-starved overnight in unsupplemented K-SFM media containing 0.5% BSA then treated with compound for 1 h at 37° C. in a humidified atmosphere at 5% CO2. DMSO at a final concentration of 0.1% served as the non-inhibited control. Cells were stimulated with 20 ng/ml of human recombinant IFNγ (R & D Systems, Minneapolis, Minn.), IL-1β (R & D Systems), or IL-17A (eBioscience, San Diego, Calif.) for 24 h. Supernatant was then collected and analyzed for cytokine concentrations using the Bio-Plex Pro Human Cytokine 17-Plex Panel (Bio-Rad Laboratories, Hercules, Calif.) according to the manufacturer's instructions. Magnetic beads were measured on the Bio-Plex MAGPIX multiplex reader instrument using the accompanying xPONENT 4.2 acquisition software (Bio-Rad Laboratories). Data were analyzed via the Bio-Plex Manager software v6.1 (Bio-Rad Laboratories).
Percent inhibition of cytokines in culture supernatant during 5 μM compound treatment of primary corneal epithelial cells. Shown below are data from a representative experiment.

BRD4 = target: T1, BRD4 (Homo sapiens, UniProt O60885); test: Bromodomain binding assay: BRD4
T1 construct: read out by qPCR of the phage DNA
Protocol: (§1) T7 phage strains displaying bromodomains were grown in parallel in 24-well blocks in an E. coli host derived from the BL21 strain. E. coli were grown to log-phase and infected with T7 phage from a frozen stock (multiplicity of infection=0.4) and incubated with shaking at 32° C. until lysis (90-150 minutes). The lysates were centrifuged (5,000×g) and filtered (0.2 μm) to remove cell debris. […] The liganded beads were blocked with excess biotin and washed with blocking buffer (SeaBlock (Pierce), 1% BSA, 0.05 Tween 20, 1 mM DTT) to remove unbound ligand and to reduce non-specific phage binding. […] Test compounds (T62 and 46) were prepared as 1000× stocks in 100% DMSO and subsequently diluted 1:10 in monoethylene glycol (MEG) to create stocks at 100× the screening concentration (resulting stock solution is 10% DMSO/90% MEG). The compounds were then diluted directly into the assays such that the final concentration of DMSO and MEG were 0.1% and 0.9%, respectively. All reactions were performed in polystyrene 96-well plates in a final volume of 0.135 ml. […] The bromodomain concentration in the eluates was measured by qPCR. Compounds were assayed for binding activity against a panel of 40 bromodomain-containing proteins.

BRPF1 = target: T2, BRPF1 (Homo sapiens, UniProt P55201); test: Bromodomain binding assay: BRPF1
T2 construct: T7 phage strains displaying bromodomains were grown in parallel; made in house; host or cells: E. coli host derived from BL21, infected with T7 phage
T2 sequence (P55201 628-732 limits assumed, species assumed): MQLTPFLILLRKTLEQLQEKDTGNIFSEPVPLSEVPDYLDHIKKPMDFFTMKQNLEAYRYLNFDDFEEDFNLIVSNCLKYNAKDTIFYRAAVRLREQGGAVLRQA
Protocol: as §1

MV-4-11 cells = test: MV-4-11 proliferation EC50 assay (CellTiter-Glo); assay type: cell-based; conditions: Homo sapiens, MV4-11, 48 h, read-out: MV-4-11 proliferation EC50, ave. ± S.D.
Protocol: Human biphenotypic B myelomonocytic leukemia MV-4-11 cells (ATCC, Manassas, Va.) were treated with test compounds at 2e5 cells/ml in IMDM medium containing 10% (v/v) FBS (Life Technologies, Grand Island, N.Y.) and 1×Pen/Strep Amphotericin B (Lonza, Allendale, N.J.). Compounds were tested at 25 μM down by ⅓ in a 9 point serial dilution series. Cells were incubated for 48 h at 37° C. in a humidified atmosphere at 5% CO2. MV-4-11 cell proliferation was then indirectly determined via cellular ATP content using the CellTiter-Glo® Luminescent Cell Viability Assay (Promega, Madison, Wis.) as per the manufacturer's instructions. Briefly, experimental plates were equilibrated at room temperature for 30 minutes. An equal volume of CellTiter-Glo® reagent was added to each well and incubated for 15 minutes at room temperature. Luminescent signal was read using the Wallac 1420 Victor^2 multilabel microplate reader (Perkin Elmer, Waltham, Mass.). EC50 values were determined using GraphPad Prism software v5.04.

[2] = test system: TLR4 signaling in primary human umbilical vein endothelial cells; test: Cytokine response to TLR4 agonism (LPS) in primary HUVEC (ELISA); assay type: cell-based
Protocol: In this example, the following commercially available inhibitors were tested:
The results were compared with test compound 61.
Pooled primary human umbilical vein endothelial cells (HUVEC) were obtained from Lonza (Allendale, N.J.) and maintained in either complete EGM-2 defined media (Lonza) or Medium 200 supplemented with Low Serum Growth Supplement (Life Technologies, Grand Island, N.Y.). Cells at low passage (<5) were seeded at 4e5 cells/ml and allowed to adhere overnight at 37° C. in a humidified atmosphere at 5% CO2. Cells were pre-treated with test compounds for 1 h prior to TLR2 or TLR4 stimulation. To test for the effects of TLR2 agonism, the TLR2 agonist peptide Pam3CysK4 (Santa Cruz Biotechnology, Dallas, Tex.) was used at 10 μg/ml. PHC-SKKK (Enzo Life Sciences, Farmingdale, N.Y.) served as the negative control peptide. To test for the effects of TLR4 agonism, LPS from E. coli 0111:B4 (EMD Millipore, Billerica, Mass.) was used at 100 ng/ml. Cells were incubated for 22 hr, after which the supernatant was collected and analyzed for cytokine concentrations by ELISA (Life Technologies). Absorbance at 450 nm was read using the Wallac 1420 Victor^2 multilabel microplate reader (Perkin Elmer, Waltham, Mass.).

[3] = +20 ng/ml IFNγ, read-out: Percent inhibition of cytokine relative to DMSO controls, G-CSF
[4] = +20 ng/ml IFNγ, read-out: Percent inhibition of cytokine relative to DMSO controls, GM-CSF
[5] = +20 ng/ml IFNγ, read-out: Percent inhibition of cytokine relative to DMSO controls, IL-6
[6] = +20 ng/ml IFNγ, read-out: Percent inhibition of cytokine relative to DMSO controls, MCP-1
[7] = +20 ng/ml IL-1β, read-out: Percent inhibition of cytokine relative to DMSO controls, G-CSF
[8] = +20 ng/ml IL-1β, read-out: Percent inhibition of cytokine relative to DMSO controls, GM-CSF
[9] = +20 ng/ml IL-1β, read-out: Percent inhibition of cytokine relative to DMSO controls, IL-6
[10] = +20 ng/ml IL-1β, read-out: Percent inhibition of cytokine relative to DMSO controls, MCP-1
[11] = +20 ng/ml IL-17A, read-out: Percent inhibition of cytokine relative to DMSO controls, G-CSF
[12] = +20 ng/ml IL-17A, read-out: Percent inhibition of cytokine relative to DMSO controls, GM-CSF
[13] = +20 ng/ml IL-17A, read-out: Percent inhibition of cytokine relative to DMSO controls, IL-6
[14] = +20 ng/ml IL-17A, read-out: Percent inhibition of cytokine relative to DMSO controls, MCP-1

Kd (BRD4) [nM] | Kd (BRPF1) [nM] | SMILES | inhibition at 5 µM [1, 3] [%] | inhibition at 5 µM [1, 4] [%] | inhibition at 5 µM [1, 5] [%] | inhibition at 5 µM [1, 6] [%] | inhibition at 5 µM [1, 7] [%] | inhibition at 5 µM [1, 8] [%] | inhibition at 5 µM [1, 9] [%] | inhibition at 5 µM [1, 10] [%] | inhibition at 5 µM [1, 11] [%] | inhibition at 5 µM [1, 12] [%] | inhibition at 5 µM [1, 13] [%] | inhibition at 5 µM [1, 14] [%] | further results
41 | > 20000 | CCOc1cc(C(=O)N2CCC(N3CCCC3)CC2)ccc1Nc1cc2c(cn1)N(C)C(=O)c1ccccc1N2C [Compound 46, 3-(2-Ethoxy-4-(4-(pyrrolidin-1-yl)piperidine-1-carbonyl)phenylamino)-5,11-dimethyl-5H-benzo[e]pyrido[3,4-b][1,4]diazepin-10(11H)-one] | 42.1 | 30.4 | 84.4 | 93.4 | 86.3 | 97 | 92.2 | 52.1 | 90.3 | 92.5 | 94.7 | 42.7 | 
 |  | CCOc1cc(C(=O)N2CCC(N3CCN(C)CC3)CC2)ccc1Nc1cc2c(cn1)N(C)C(=O)c1ccccc1N2C [Compound 61] |  |  |  |  |  |  |  |  |  |  |  |  | EC50 (MV-4-11 cells): 700 ± 50 nM; G-CSF ([2]; 5 μM inhibitor, +100 ng/ml LPS): 14 ± 5 pg/mL; IL-6 ([2]; 5 μM inhibitor, +100 ng/ml LPS): 113 ± 14 pg/mL; IL-8 ([2]; 5 μM inhibitor, +100 ng/ml LPS, 22 hr): 1105 ± 25 pg/mL; G-CSF ([2]; 5 μM inhibitor, No Stimulation): 0 ± 25 pg/mL; IL-6 ([2]; 5 μM inhibitor, No Stimulation): 7 ± 1 pg/mL; G-CSF response to TLR4 agonism, in words ([2]; summary of Table 23): reduced the G-CSF response; IL-6 response, in words ([2]; summary of Table 24): reduced
97 | > 20000 | CCOc1cc(C(=O)N[C@H]2CC[C@H](O)CC2)ccc1Nc1cc2c(cn1)N(C)C(=O)c1ccccc1N2C [Compound T62] | 28 | 25.4 | 67.9 | 89.5 | 89.3 | 97.1 | 88.7 | 58 | 86.4 | 89.7 | 89.6 | 36 | 
